Experimental data taken from patent publication US20250320194A1, “PHARMACEUTICALLY ACCEPTABLE SALT AND CRYSTAL FORM OF FUSED PYRIDINE RING DERIVATIVE AND PREPARATION METHOD THEREFOR” (Jiangsu Hengrui Pharmaceuticals Co., Ltd., priority 2021, published 2025).

Key:
HIV-1 capsid protein = target: T1, HIV-1 capsid protein (Human immunodeficiency virus type 1 group M subtype B, UniProt P12493); assay: In vitro polymerization of HIV-1 capsid protein (HTRF, His-CA/GST-CA); type: biochemical, HIV-1 NL4-3
T1 construct: made in house
Source text: • 1. MAb Anti GST-Eu cryptate (Cisbio) • 2. MAb Anti 6HIS-XL665 (Cisbio) • 3. His tag HIV-1 capsid protein (hereinafter referred to as His-CA) • 4. GST tag HIV-1 capsid protein (hereinafter referred to as GST-CA) • 5. 384-well unbound surface microplate, white (Corning) • 6. Microplate reader (BMG)
The HIV-1 capsid proteins aggregate spontaneously in high-salt solutions. Capsid protein derived from HIV-1 NL4-3 strains were separately tagged and expressed with 6His tag and GST tag, and purified. His-CA and GST-CA were mixed at high-salt concentrations, and the level of polymerization of capsid proteins was detected using GST antibody labeled with Eu3+-Cryptate (energy donor) and His antibody labeled with XL665 (energy acceptor). […]
His-CA was diluted to […] in a clean tube with protein diluent (50 mM Tris-HCl, pH 8.0, 50 mM NaCl, 0.4 mM MgCl2, 0.05% Triton X-100, 2% glycerol) while MAb Anti 6HIS-XL665 at a final concentration of 260 nM was added; GST-CA was diluted to 20 nM with protein diluent in another clean tube while MAb Anti GST-Eu cryptate at a final concentration of 3.33 nM was added and incubated on ice for half an hour. […] After incubation, the samples were excited with an excitation light at 337 nM, and signal values at 620 nM and 665 nM were collected for detection, wherein Ratio values=(665 nM/620 nM signal)*10000 was calculated according to the signal values. EC50 values for compounds were calculated using Graphpad Prism software based on each concentration of the compounds and the corresponding Ratio values.

[1] = Hygroscopicity of salt crystal forms (DVS, 25° C.); type: physicochemical
Procedure: The test adopts SMS DVS Advantage, at 25° C., with a humidity range of 0 to 95% and a step of 10%. The judgment standard is that the dM/dT of each gradient mass change is less than 0.002%, TMAX is 360 minutes, and the cycle is two times. • 5. Cation chromatography • Instrument model: DIONEX AQUION ion chromatograph, USA • Detection method: conductivity; separation column: IonPac CS16-CG16 • Eluent: MSA 20Mm • Flow rate: 1.0 ml/min • 6. Anion chromatography • Instrument model: DIONEX INTEGRION HPIC ion chromatograph, USA • Detection method: conductivity; separation column: DionexIonPac™-AS11-HC • Eluent: EGC-500-KOH • Flow rate: 1.5 ml/min
Using Surface Measurement Systems advantage, at 25° C., the humidity starts from 50%, the humidity range is 0% to 95%, the step is 10%. The judgment standard was that the dM/dT of each gradient mass change is less than 0.002%, TMAX360 min, and the cycle was two times. The hygroscopicity of different salt crystal forms of the compound of formula I was investigated respectively.

[2] = Long-term/accelerated stability
[3] = Stability under influencing factors (high temperature, high humidity, open, 30 days)

For `CC(C)(C#Cc1nc([C@H](Cc2cc(F)cc(F)c2)NC(=O)Cn2nc(C(F)(F)F)c3c2C(F)(F)[C@@H]2C[C@H]32)c(-c2ccc(Cl)c3c(NS(C)(=O)=O)nn(CC(F)(F)F)c23)c2c1CCC2)S(C)(=O)=O` (atropisomer, axis not shown; (aR)) [The compound of formula (I), N—((S)-1-((R)-4-(4-chloro-3-(methanesulfonamide)-1-(2,2,2-trifluoroethyl)-1H-indazol-7-yl)-1-(3-methyl-3-(methylsulfonyl)but-1-yn-1-yl)-6,7-dihydro-5H-cyclopenta[c]pyridin-3-yl)-2-(3,5-difluorophenyl)ethyl)-2-((3bS,4aR)-5,5-difluoro-3-(trifluoromethyl)-3b,4,4a,5-tetrahydro-1H-cyclopropa[3,4]cyclopenta[1,2-c]pyrazol-1-yl)acetamide], the EC50 (HIV-1 capsid protein) was 9 nM, the Emax (HIV-1 capsid protein) was 100% and the “inhibition effect on the polymerization of HIV-1 capsid proteins” value (HIV-1 capsid protein; conclusion in words) was “significant inhibition effect”.
In the case of `CC(C)(C#Cc1nc(C(Cc2cc(F)cc(F)c2)NC(=O)Cn2nc(C(F)(F)F)c3c2C(F)(F)C2CC32)c(-c2ccc(Cl)c3c([N-]S(C)(=O)=O)nn(CC(F)(F)F)c23)c2c1CCC2)S(C)(=O)=O.[Na+]` (stereo not shown) [Crystal form II of the sodium salt], the “Hygroscopicity 0.0% RH-95.0% RH” value ([1]; DVS, 25° C., 0.0% RH-95.0% RH) is reported as 34.16%, the “Hygroscopicity 20.0% RH-80.0% RH” value ([1]; DVS, 25° C., 20.0% RH-80.0% RH) is reported as 11.61% and the Crystal form ([1]; after DVS) is reported as “Unchanged”. It also gave a Purity % ([2]; 4° C., 1 month) of 97.83%, a Purity % ([2]; 4° C., 2 months) of 97.83% and a Purity % ([2]; 4° C., 3 months) of 97.79%. The Purity % ([2]; 4° C., 6 months) was 97.77%, the Purity % ([2]; 4° C., Start) was 97.76% and the Purity % ([2]; 25° C., 60% RH, 1 month) was 97.82%. The Purity % ([2]; 25° C., 60% RH, 2 months) was 97.82%, the Purity % ([2]; 25° C., 60% RH, 3 months) was 97.86% and the Purity % ([2]; 25° C., 60% RH, 6 months) was 97.79%. It also gave a Purity % ([2]; 25° C., 60% RH, Start) of 97.76%, a Purity % ([2]; 40° C., 75% RH, 1 month) of 97.81% and a Purity % ([2]; 40° C., 75% RH, 2 months) of 97.80%. It also gave a Purity % ([2]; 40° C., 75% RH, 3 months) of 97.83%, a Purity % ([2]; 40° C., 75% RH, 6 months) of 97.76% and a Purity % ([2]; 40° C., 75% RH, Start) of 97.76%. The “physical and chemical stability (conclusion)” value ([2]; long-term accelerated stability conditions for 6 months) was “good physical and chemical stability”, the “physical and chemical stability (conclusion)” value ([3]; 40° C., 60° C., 75% RH and 92.5% RH) was “good physical and chemical stability” and the “Color, properties” value ([3]; 40° C., 5 days) was “White solid”. The Crystal form ([3]; 40° C., 5 days) was “Unchanged”, the Purity % ([3]; 40° C., 5 days, listed as II-crystal form of the sodium salt) was 97.88% and the “Color, properties” value ([3]; 40° C., 10 days) was “White solid”. The Crystal form ([3]; 40° C., 10 days) was “Unchanged”, the Purity % ([3]; 40° C., 10 days, listed as II-crystal form of the sodium salt) was 97.83% and the “Color, properties” value ([3]; 40° C., 30 days) was “White solid”. For the same compound, the Crystal form ([3]; 40° C., 30 days) was “Unchanged”, the Purity % ([3]; 40° C., 30 days, listed as II-crystal form of the sodium salt) was 97.88% and the “Color, properties” value ([3]; 60° C., 5 days) was “White solid”. The Crystal form ([3]; 60° C., 5 days) was “Unchanged”, the Purity % ([3]; 60° C., 5 days, listed as II-crystal form of the sodium salt) was 97.86% and the “Color, properties” value ([3]; 60° C., 10 days) was “White solid”. For the same compound, the Crystal form ([3]; 60° C., 10 days) was “Unchanged”, the Purity % ([3]; 60° C., 10 days, listed as II-crystal form of the sodium salt) was 97.88% and the “Color, properties” value ([3]; 60° C., 30 days) was “White solid”. The Crystal form ([3]; 60° C., 30 days) was “Unchanged”, the Purity % ([3]; 60° C., 30 days, listed as II-crystal form of the sodium salt) was 97.90% and the “Color, properties” value ([3]; 75% RH, 5 days) was “White solid”. The Crystal form ([3]; 75% RH, 5 days) was “Unchanged”, the Purity % ([3]; 75% RH, 5 days, listed as II-crystal form of the sodium salt) was 97.84% and the “Color, properties” value ([3]; 75% RH, 10 days) was “White solid”. The Crystal form ([3]; 75% RH, 10 days) was “Unchanged”, the Purity % ([3]; 75% RH, 10 days, listed as II-crystal form of the sodium salt) was 97.84% and the “Color, properties” value ([3]; 75% RH, 30 days) was “White solid”. For the same compound, the Crystal form ([3]; 75% RH, 30 days) was “Unchanged”, the Purity % ([3]; 75% RH, 30 days, listed as II-crystal form of the sodium salt) was 97.82% and the “Color, properties” value ([3]; 92.5% RH, 5 days) was “White solid”. The Crystal form ([3]; 92.5% RH, 5 days) was “Unchanged”, the Purity % ([3]; 92.5% RH, 5 days, listed as II-crystal form of the sodium salt) was 97.84% and the “Color, properties” value ([3]; 92.5% RH, 10 days) was “White solid”. The Crystal form ([3]; 92.5% RH, 10 days) was “Unchanged”, the Purity % ([3]; 92.5% RH, 10 days, listed as II-crystal form of the sodium salt) was 97.85% and the “Color, properties” value ([3]; 92.5% RH, 30 days) was “White solid”. For the same compound, the Crystal form ([3]; 92.5% RH, 30 days) was “Unchanged”, the Purity % ([3]; 92.5% RH, 30 days, listed as II-crystal form of the sodium salt) was 97.82% and the “Color, properties” value ([3]; Start, 0 days) was “White solid”. The Purity % ([3]; Start, 0 days) was 97.76%.
